Article doi:10.1101/2024.09.20.614104v2, “SATAY-Based Chemogenomic Screening uncovers Antifungal Resistance Mechanisms and Key Determinants of ATI-2307 and Chitosan Sensitivity” (biorxiv, 2024)

Legend:
[1] = target: T1, Hol1 (Saccharomyces cerevisiae, UniProt P53389); test: LC-MS quantification of cellular uptake, wild-type versus hol1 deletion cells; format: cell-based; conditions: SC 2% ethanol, 30 °C, not an affinity constant
T1 construct: full-length native plasma membrane polyamine transporter in wild-type yeast; hol1 deletion strain as control

[2] = target: T2, CaHOL1 (Candida albicans, UniProt Q5AP74); test: LC-MS quantification of cellular uptake, hol1 deletion cells with or without CaHOL1 plasmid; format: cell-based; conditions: 0.003 μg/mL ATI-2307, 2 h, SC -URA 2% ethanol, 30 °C
T2 construct: gene HOL1; full-length CDS PCR-amplified from genomic DNA, expressed from plasmid pBK994 in S. cerevisiae hol1 deletion strain
T2 sequence (Q5AP74 entry or part of it): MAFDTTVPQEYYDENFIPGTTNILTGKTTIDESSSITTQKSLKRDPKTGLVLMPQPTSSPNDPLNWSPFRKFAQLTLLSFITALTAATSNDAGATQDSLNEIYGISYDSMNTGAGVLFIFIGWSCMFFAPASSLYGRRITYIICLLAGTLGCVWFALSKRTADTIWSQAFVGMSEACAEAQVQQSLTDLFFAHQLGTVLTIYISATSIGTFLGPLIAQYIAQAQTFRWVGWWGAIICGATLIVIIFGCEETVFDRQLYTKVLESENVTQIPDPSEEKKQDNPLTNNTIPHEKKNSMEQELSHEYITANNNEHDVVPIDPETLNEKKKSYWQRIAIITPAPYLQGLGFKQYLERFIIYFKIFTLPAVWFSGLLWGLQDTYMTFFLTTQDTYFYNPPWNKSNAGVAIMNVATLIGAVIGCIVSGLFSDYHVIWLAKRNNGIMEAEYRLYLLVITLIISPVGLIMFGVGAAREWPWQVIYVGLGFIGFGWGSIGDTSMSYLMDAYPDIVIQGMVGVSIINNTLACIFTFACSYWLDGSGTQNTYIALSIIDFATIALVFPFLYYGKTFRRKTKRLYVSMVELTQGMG

T1 sequence (P53389 whole entry): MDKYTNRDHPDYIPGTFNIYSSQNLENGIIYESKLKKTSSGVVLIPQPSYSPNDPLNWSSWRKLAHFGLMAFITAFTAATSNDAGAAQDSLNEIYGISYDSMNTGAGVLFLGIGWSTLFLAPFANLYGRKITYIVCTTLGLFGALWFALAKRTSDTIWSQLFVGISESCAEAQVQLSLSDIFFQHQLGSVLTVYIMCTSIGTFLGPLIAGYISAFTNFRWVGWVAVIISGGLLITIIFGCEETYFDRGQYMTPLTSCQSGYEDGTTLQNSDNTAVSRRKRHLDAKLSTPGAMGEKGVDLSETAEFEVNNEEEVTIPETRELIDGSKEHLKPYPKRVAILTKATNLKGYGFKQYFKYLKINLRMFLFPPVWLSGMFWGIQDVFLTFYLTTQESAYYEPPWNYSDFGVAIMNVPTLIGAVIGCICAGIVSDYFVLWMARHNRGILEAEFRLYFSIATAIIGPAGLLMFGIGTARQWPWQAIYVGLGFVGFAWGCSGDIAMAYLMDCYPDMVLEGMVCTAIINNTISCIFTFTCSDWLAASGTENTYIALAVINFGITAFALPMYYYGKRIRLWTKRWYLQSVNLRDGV

| Compound | uptake, μg per gram of WT pellet ([1]; 0.003 μg/mL ATI-2307, 2 h) [μg/g pellet] | LC-MS quantification of cellular uptake, hol1 deletion cells with or without CaH [2] | uptake, μg per gram of WT pellet ([1]; 1 μg/mL Iminoctadine, 2 h) [μg/g pellet] |
| --- | --- | --- | --- |
| N=C(N)c1ccc(OCCCC2CCN(CCCOc3ccc(C(=N)N)cc3)CC2)cc1 [ATI-2307] | 0.1 | heterologous expression of C. albicans HOL1 (CaHOL1) partially restored ATI-2307 uptake | – |
| N=C(N)NCCCCCCCCNCCCCCCCCNC(=N)N [Iminoctadine] | – | – | 52.5 |
